Laboratory results as given in patent US8168675B2, “Compositions and methods for treating neurodegenerative diseases” (Marin Bio Co., Ltd., priority 2008, dated 2012).

Experiments:
Assay type in all cases: in vivo
C57BL/6 (B6) mice [1] = test: ABR hearing threshold measurement in aged mice (presbycusis model); conditions: dietary supplementation from 4 to 15 months of age, *P<0.05, n=5 vs Control
Method: (§1) Details on the methods used to house and feed male inbred C57BL/6 (B6) mice have been described (Pugh et al., Cancer Res. 59:1642 [1999]). Briefly, Mice were divided into five groups: control, α-lipoic acid (ALA), CLA, coenzyme Q10 (CQ), and phenylalanine (PA). The compound treatment groups were fed the same caloric intake as controls, but were supplemented with ALA (150 mg/kg), CLA (5000 mg/kg), CQ (50 mg/kg), and PA (250 mg/kg) from 4 months of age until 15 months of age (FIG. 1).
Detailed protocols for ABR measurement have been described (Yamasoba et al., Neurosci Lett. 395:18 [2005]). […] Mice were anesthetized with a mixture of xylazine hydrochloride (10 mg/kg, i.m.) and ketamine hydrochloride (40 mg/kg, i.m.). Five to seven mice per group were used for this study, and the same mice were used for the following histopathological analyses. Data were examined using the two-tailed standard t-test and were tested for statistical significance using a One Way ANOVA test (GraphPad Prisim 5.0, San Diego, Calif.). All data were reported as mean±S.E.M.

C57BL/6 (B6) mice [2] = test: Cochlear histopathology (hair cells and SGCs); conditions: dietary supplementation from 4 to 15 months of age, HE-stained cochlear sections, Control showed severe loss
Method: as §1
Detailed protocols for tissue processing have been described (Someya et al., [2007], supra). Briefly, 4% paraformaldehyde-fixed and paraffin-embedded specimens were sliced into 4 μm sections, mounted on silane-coated slides, stained with Haematoxylin and Eosin (HE), and observed under a light microscope (Leica Microsystems, Bannockburn, Ill.). The Rosenthal's canal was divided into three regions: apical, middle and basal (Keithley et al., [2004], supra) and the three regions were used for evaluation of cochlear histopathology. Five mice were used for each group that were the same mice as those used in the ABR tests. Five modiolar sections obtained in every fifth section from one unilateral cochlea were evaluated per mouse. The same animals were used for spiral ganglion cell counting.

C57BL/6 (B6) mice [3] = test: Spiral ganglion cell counting (SGC density); conditions: dietary supplementation from 4 to 15 months of age, *P<0.05, n=5
Method: as §1
SGCs were identified by the presence of a nucleus. The SGC density was calculated as the number of SGCs per 1 mm^2. Five sections of the unilateral apical turn were evaluated in one cochlea per mouse. Data were analyzed using the two-tailed standard t-test. All data were reported as mean±S.E.M.

| Compound | hearing by ABR thresholds at 32 kHz (C57BL/6 (B6) mice [1]) | loss of hair cells and SGCs in the cochleae (C57BL/6 (B6) mice [2]) | mean spiral ganglion cell density vs Control mice (C57BL/6 (B6) mice [3]) | hearing by ABR thresholds at 8 and 32 kHz (C57BL/6 (B6) mice [1]; 8 and 32 kHz) |
| --- | --- | --- | --- | --- |
| N[C@@H](Cc1ccccc1)C(=O)O [PA, phenylalanine] | normal hearing | no or only a few loss | significantly higher |  |
| conjugated linoleic acid [CLA] | normal hearing |  |  |  |
| O=C(O)CCCCC1CCSS1 (stereo not drawn) [ALA, α-lipoic acid] | normal hearing | no or only a few loss | significantly higher |  |
| COC1=C(OC)C(=O)C(C/C=C(\C)CC/C=C(\C)CC/C=C(\C)CC/C=C(\C)CC/C=C(\C)CC/C=C(\C)CC/C=C(\C)CC/C=C(\C)CC/C=C(\C)CCC=C(C)C)=C(C)C1=O [CQ, coenzyme Q10] |  | no or only a few loss | significantly higher | normal hearing |
